# Assays:
# [1] = biological target: T1, 5-HT2A receptor (Homo sapiens, UniProt P28223); experiment: Intracellular calcium assay of Gq signaling, HEK293 cells; format: cell-based
# [2] = biological target: M3 muscarinic receptor (Homo sapiens, UniProt P20309); experiment: Intracellular calcium assay, untransfected HEK293 cells with endogenous receptor; format: cell-based
# [3] = biological target: 5-HT6 receptor (Rattus norvegicus, UniProt P31388); experiment: cAMP-Glo assay of Gs signaling, HeLa cells; format: cell-based; conditions: 30 μM
# [4] = tested on: untransfected HeLa cells; experiment: cAMP-Glo assay, control cells; format: cell-based, human; conditions: efavirenz 30 μM, clozapine 30 μM, 5-HT 1 μM
# [5] = tested on: endogenous β-adrenergic receptor; experiment: cAMP-Glo assay, untransfected HeLa cells stimulated with; format: cell-based, human
# [6] = biological target: T1, 5-HT2A receptor; experiment: Prolonged; format: cell-based; conditions: 3 day exposure to 30 μM
# [7] = biological target: h5-HT2A (Homo sapiens, UniProt P28223); conditions: 10 μM efavirenz; cited from earlier work
# [8] = biological target: M1 muscarinic receptor (Homo sapiens, UniProt P11229)
# [9] = biological target: T2, h5-HT2C (Homo sapiens, UniProt P28335); conditions: 10 μM efavirenz; cited from earlier work
# T2 sequence (P28335 33-458): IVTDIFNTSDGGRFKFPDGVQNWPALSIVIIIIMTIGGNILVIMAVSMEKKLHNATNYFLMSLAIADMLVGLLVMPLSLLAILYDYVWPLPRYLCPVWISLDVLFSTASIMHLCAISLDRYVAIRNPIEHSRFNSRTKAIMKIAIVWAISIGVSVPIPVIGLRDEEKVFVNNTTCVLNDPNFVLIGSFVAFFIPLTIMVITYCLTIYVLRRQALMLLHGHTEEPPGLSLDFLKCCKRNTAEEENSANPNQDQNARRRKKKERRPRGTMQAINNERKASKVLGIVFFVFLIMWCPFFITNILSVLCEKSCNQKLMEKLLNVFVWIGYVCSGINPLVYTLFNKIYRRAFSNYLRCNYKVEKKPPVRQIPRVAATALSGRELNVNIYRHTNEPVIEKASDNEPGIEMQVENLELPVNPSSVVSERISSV
# [10] = cited from earlier work
# [11] = cited from earlier work; remark: listed apart in the source
# [12] = within 1 hr of i.p. dose of 15 mg/kg; cited from earlier work
# [13] = cited from earlier work; remark: listed apart in the source
# [14] = tested on: GABAA receptor; conditions: cited from earlier work
# [15] = tested on: serotonin transporter (SERT); conditions: 10 μM; cited from earlier work
# [16] = cited from earlier work; remark: listed apart in the source
# [17] = cited from earlier work; remark: listed apart in the source
# [18] = tested on: dopamine receptors; conditions: 10 μM; cited from earlier work
# [19] = tested on: NMDA receptors; conditions: 10 μM; cited from earlier work
# [20] = tested on: muscarinic receptors; conditions: 10 μM; cited from earlier work
# [21] = tested on: HIV-1; conditions: cited from earlier work
# [22] = Estimated brain concentration, authors' calculation
# [23] = biological target: T3, 5-HT2C receptor (Homo sapiens, UniProt P28335); experiment: Competition radioligand binding, concentration-response
# T3 sequence (P28335 33-458): T2 sequence (P28335 33-458)
# [24] = biological target: h5-HT2B (Homo sapiens, UniProt P41595); experiment: Radioligand displacement by a fixed drug concentration, [3H]LSD; conditions: 10 μM efavirenz
# [25] = biological target: h5-HT5A (Homo sapiens, UniProt P47898); experiment: as above; conditions: 10 μM efavirenz
# [26] = biological target: T4, 5-HT3A receptors (Mus musculus, UniProt P23979); experiment: Whole cell electrophysiology, 5-HT-induced currents, HEK293 cells; conditions: for reversibility of inhibition: 2–3 min washout, data not shown
# T4 sequence (P23979 24-489): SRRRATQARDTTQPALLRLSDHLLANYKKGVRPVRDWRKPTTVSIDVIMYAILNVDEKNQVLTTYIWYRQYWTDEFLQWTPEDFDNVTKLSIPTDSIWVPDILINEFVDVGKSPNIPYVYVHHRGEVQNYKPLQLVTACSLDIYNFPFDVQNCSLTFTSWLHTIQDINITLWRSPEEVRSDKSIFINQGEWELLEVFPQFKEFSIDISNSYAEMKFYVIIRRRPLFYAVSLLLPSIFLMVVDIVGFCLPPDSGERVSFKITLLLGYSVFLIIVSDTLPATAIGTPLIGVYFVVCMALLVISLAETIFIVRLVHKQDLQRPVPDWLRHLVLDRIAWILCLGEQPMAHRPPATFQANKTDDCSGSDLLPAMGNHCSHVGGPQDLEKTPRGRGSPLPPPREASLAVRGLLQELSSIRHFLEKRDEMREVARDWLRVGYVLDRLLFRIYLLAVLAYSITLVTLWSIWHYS
# [27] = biological target: m5-HT3 (5-HT3A receptor) (Mus musculus, UniProt P23979); experiment: Radioligand displacement by a fixed drug concentration, [3H]BRL-43694; conditions: 10 μM efavirenz
# Sequence of M3 muscarinic receptor (P20309 whole entry): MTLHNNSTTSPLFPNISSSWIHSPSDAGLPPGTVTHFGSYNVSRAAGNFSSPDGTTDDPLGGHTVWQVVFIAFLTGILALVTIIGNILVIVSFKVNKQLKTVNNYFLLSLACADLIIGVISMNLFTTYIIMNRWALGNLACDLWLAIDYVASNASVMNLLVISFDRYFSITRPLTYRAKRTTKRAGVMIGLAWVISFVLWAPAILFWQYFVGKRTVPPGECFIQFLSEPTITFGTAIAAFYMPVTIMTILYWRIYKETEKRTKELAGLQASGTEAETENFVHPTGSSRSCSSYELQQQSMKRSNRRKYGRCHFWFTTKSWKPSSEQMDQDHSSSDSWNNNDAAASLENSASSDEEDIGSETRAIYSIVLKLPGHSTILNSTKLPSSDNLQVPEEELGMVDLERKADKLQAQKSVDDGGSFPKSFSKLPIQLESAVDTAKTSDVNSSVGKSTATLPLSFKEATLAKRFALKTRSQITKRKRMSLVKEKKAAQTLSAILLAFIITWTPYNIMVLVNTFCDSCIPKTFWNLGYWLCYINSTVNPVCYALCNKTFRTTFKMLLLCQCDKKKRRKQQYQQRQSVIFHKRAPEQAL
# T1 sequence (P28223 whole entry): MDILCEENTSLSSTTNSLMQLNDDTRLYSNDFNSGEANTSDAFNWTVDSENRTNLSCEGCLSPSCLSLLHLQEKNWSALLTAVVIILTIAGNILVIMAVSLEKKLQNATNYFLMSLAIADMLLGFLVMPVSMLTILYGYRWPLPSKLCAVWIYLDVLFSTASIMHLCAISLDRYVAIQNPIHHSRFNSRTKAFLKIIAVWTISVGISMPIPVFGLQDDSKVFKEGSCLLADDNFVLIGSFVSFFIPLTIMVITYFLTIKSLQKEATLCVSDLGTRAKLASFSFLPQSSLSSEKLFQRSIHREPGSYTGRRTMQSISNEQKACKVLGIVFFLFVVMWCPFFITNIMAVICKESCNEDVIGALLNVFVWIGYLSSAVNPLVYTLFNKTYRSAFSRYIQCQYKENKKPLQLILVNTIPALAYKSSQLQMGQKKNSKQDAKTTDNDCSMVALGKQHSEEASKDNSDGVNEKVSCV
# Sequence of 5-HT6 receptor (P31388 whole entry): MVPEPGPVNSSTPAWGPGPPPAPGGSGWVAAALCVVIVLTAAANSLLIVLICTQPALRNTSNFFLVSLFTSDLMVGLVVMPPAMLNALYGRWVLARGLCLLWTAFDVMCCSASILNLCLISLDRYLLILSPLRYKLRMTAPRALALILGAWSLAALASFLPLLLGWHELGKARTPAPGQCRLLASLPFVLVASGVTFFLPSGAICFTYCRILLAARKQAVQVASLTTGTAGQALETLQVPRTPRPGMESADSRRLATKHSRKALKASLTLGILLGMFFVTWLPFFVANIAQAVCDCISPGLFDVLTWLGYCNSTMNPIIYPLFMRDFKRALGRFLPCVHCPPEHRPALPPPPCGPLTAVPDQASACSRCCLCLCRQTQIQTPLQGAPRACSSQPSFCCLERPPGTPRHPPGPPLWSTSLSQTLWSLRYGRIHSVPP
# Sequence of M1 muscarinic receptor (P11229 whole entry): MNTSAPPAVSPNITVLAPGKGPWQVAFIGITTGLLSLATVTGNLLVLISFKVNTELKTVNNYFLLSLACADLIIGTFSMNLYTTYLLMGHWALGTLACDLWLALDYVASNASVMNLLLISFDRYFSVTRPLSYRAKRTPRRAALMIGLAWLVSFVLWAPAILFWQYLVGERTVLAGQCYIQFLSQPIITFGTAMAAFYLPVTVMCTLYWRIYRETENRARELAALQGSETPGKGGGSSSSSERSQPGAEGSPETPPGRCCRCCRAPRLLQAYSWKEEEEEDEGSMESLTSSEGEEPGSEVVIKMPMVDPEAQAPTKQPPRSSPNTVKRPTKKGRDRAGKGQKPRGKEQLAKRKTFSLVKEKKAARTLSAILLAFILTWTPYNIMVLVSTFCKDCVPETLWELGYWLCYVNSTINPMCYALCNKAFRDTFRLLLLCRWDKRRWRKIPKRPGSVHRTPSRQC
# Sequence of h5-HT2A (P28223 whole entry): as the sequence (P28223 whole entry) above
# Sequence of h5-HT2B (P41595 whole entry): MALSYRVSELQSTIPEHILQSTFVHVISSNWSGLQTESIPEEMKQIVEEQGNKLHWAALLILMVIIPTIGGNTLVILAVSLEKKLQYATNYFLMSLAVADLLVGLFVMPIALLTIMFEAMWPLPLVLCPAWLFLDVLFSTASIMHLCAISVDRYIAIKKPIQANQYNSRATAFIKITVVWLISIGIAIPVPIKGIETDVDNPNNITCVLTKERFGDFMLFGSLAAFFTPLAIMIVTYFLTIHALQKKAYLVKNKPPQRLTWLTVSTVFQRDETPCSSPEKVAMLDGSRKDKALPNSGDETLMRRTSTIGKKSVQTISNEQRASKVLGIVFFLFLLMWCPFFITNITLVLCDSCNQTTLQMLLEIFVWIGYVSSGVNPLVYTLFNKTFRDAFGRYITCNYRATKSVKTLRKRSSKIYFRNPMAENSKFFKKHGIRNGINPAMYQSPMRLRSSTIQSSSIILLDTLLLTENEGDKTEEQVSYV
# Sequence of h5-HT5A (P47898 whole entry): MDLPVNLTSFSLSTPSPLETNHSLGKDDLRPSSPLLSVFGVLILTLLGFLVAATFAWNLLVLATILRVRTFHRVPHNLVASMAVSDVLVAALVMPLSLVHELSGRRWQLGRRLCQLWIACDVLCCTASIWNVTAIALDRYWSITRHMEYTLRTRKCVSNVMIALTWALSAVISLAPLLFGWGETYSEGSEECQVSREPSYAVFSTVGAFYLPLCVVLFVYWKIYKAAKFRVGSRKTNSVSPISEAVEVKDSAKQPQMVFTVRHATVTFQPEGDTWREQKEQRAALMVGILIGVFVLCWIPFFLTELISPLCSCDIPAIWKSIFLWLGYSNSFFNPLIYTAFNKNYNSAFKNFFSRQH
smiles,measurement,setting,value
"O=C1Nc2ccc(Cl)cc2[C@@](C#CC2CC2)(C(F)(F)F)O1 [efavirenz, (4S)-6-chloro-4-(2-cyclopropylethynyl)-4-(trifluoromethyl)-2,4-dihydro-1H-3,1-benzoxazin-2-one]","inhibition of agonist responses (5-HT, TCB-2, α-Me-5HT)",[1]; 30 μM antagonist,significant inhibition
same,Schild plot slope,[1]; (±)-DOI as agonist,1.06 ± 0.054
same,Schild plot slope,[1]; LSD as agonist,1.2 ± 0.16
same,concentration partially suppressing ACh mediated activation,[2]; EC50 concentration of acetylcholine,≥ 10 µM
same,extent of block of ACh response,[2]; highest concentration that could be tested,unable to produce a complete block
same,effect alone on intracellular Ca2+ levels,[2]; untransfected HEK293 cells,had no effect
same,effect on 5-HT agonist effect,[3],completely overcame the agonist effect of 5-HT but also reduced activity to below basal levels
same,effect on basal cAMP,[3],lowers the basal levels of cAMP
same,change in cAMP levels,[4],no significant changes in cAMP levels
same,effect on (−)-epinephrine stimulated cAMP response,[5],failed to significantly modulate
same,decrease in receptor density (Bmax),[6],52%
same,displacement of specifically bound radioligand,[7],≥ 75%
same,stimulation of Gq-coupling alone,[8],fails to stimulate
same,concentration suppressing the carbachol Gq response,[8]; EC50 concentration of carbachol,≥ 10 µM
same,displacement of specifically bound radioligand,[9],≥ 75%
same,mean concentration in CSF,[10]; across studies,approximately 44 nM
same,CSF levels as % of plasma concentrations,[10],0.52%
same,bound to plasma proteins,[11],approximately 99.8%
same,brain levels relative to plasma levels,[12],exceed 4.6 times
same,incidence of hallucinations,"[13]; large clinical studies, 1008 patients",1.2%
same,frequency of hallucinations,"[13]; three clinical studies, 114–197 patients each",6–31%
same,effect on GABA-mediated chloride currents,[14],potentiated GABA-mediated chloride currents
same,effect on serotonin reuptake,[15],blocks reuptake of serotonin
same,substitution in rats trained to discriminate LSD from saline,[16],partially substituted for LSD
same,novel open field locomotor activity,[17],dose-dependently depressed novel open field locomotor activity
same,interaction,[18],did not have significant interactions
same,interaction,[19],did not have significant interactions
same,interaction,[20],did not have high affinity interactions
same,plasma levels needed to keep HIV-1 suppressed,[21],1 to 4 µg/mL
same,plasma levels resulting in NPAE,[21],greater than 2.74 μg/mL
same,plasma levels resulting in virologic failure,[21],< 1 μg/mL
same,estimated concentration in brain tissue,[22]; 44 nM ÷ 0.002,~22 µM
same,corresponding brain concentrations,"[22]; plasma >2.74 μg/mL, assuming rat brain accumulation 4.6",> 40 µM
same,Ki,[23],1.7 ± 0.28 µM
same,pseudo Hill slope,[23]; competition binding,−1.22 ± −0.18
same,displacement of specifically bound radioligand,[24],greater than 50%
same,interaction (radioligand displacement),[25],less pronounced or no detectable interaction
same,IC50,[26],4.9 ± 0.7 µM
same,Hill coefficient,[26]; 0.6 μM 5-HT (EC30),1.2 ± 0.19
same,effect alone,"[26]; 10 μM, n = 5, data not shown",had no effect
same,inhibition of steady-state currents,[26]; 30 μM,complete inhibition
same,reversibility of inhibition,[26]; 30 μM,partially recovered
same,reversibility of inhibition,[26]; up to 10 μM,completely reversible
same,displacement of [3H]-granisetron binding,[27],did not significantly displace

# Reference: publication PMC4914440 (Pharmacological research, 2016)
